According to ChEMBL document CHEMBL5724914, “Linking interpersonal differences in gut microbiota composition and drug biotransformation activity” (2024):

How the values were obtained:
[1] = (§1) The drug is tested on Z-023 corresponding to metagenome with ENA study accession number: PRJEB37062 and ENA sample accession number: ERS12561822 for biotransformation under anaerobic condition. The drug concentrations were measured over 9 timepoints collected between 0 and 24 hours of incubation by liquid-chromatography-coupled mass spectrometry (LC–MS); settings: 2 µM
[2] = (§2) The drug is tested on WLS-039 corresponding to human gut metagenome with ENA study accession number: PRJEB37062 and ENA sample accession number: ERS12561746 for biotransformation under anaerobic condition. The drug concentrations were measured over 9 timepoints collected between 0 and 24 hours of incubation by liquid-chromatography-coupled mass spectrometry (LC–MS); settings: 2 µM
[3] = human gut metagenome, 24 h, 2 µM
[4] = as §2, with “WLS-077” for “WLS-039”, “ERS12561750” for “ERS12561746”; settings: 2 µM
[5] = human gut metagenome, 24 h, 2 µM; remark: listed apart in the source
[6] = human gut metagenome, 24 h, 2 µM; remark: listed apart in the source
[7] = as §2, with “Z-006” for “WLS-039”, “mouse” for “human”, “ERS12561806” for “ERS12561746”; settings: 2 µM
[8] = as §2, with “WLS-240” for “WLS-039”, “ERS12561773” for “ERS12561746”; settings: 2 µM
[9] = as §1, with “Z-010” for “Z-023”, “ERS12561810” for “ERS12561822”; settings: 2 µM
[10] = human gut metagenome, 24 h, 2 µM; remark: listed apart in the source
[11] = as §2, with “WLS-350” for “WLS-039”, “ERS12561789” for “ERS12561746”; settings: 2 µM
[12] = as §2, with “Z-013” for “WLS-039”, “rabbit” for “human”, “ERS12561813” for “ERS12561746”; settings: 2 µM
[13] = as §1, with “Z-008” for “Z-023”, “ERS12561808” for “ERS12561822”; settings: 2 µM
[14] = as §2, with “Z-028” for “WLS-039”, “mouse” for “human”, “ERS12561827” for “ERS12561746”; settings: 2 µM
[15] = as §2, with “Z-011” for “WLS-039”, “mouse” for “human”, “ERS12561811” for “ERS12561746”; settings: 2 µM
[16] = as §2, with “Z-018” for “WLS-039”, “pig” for “human”, “ERS12561817” for “ERS12561746”; settings: 2 µM
[17] = human gut metagenome, 24 h, 2 µM; remark: listed apart in the source
[18] = human gut metagenome, 24 h, 2 µM; remark: listed apart in the source
[19] = as §2, with “Z-001” for “WLS-039”, “mouse” for “human”, “ERS12561801” for “ERS12561746”; settings: 2 µM
[20] = human gut metagenome, 24 h, 2 µM; remark: listed apart in the source
Also: call rule not given here.

Row | Compound | Bacterial Biotransformation [1] | Bacterial Biotransformation [2] | Bacterial Biotransformation [3] | Bacterial Biotransformation [4] | Bacterial Biotransformation [5] | Bacterial Biotransformation [6] | Bacterial Biotransformation [7] | Bacterial Biotransformation [8] | Bacterial Biotransformation [9] | Bacterial Biotransformation [10] | Bacterial Biotransformation [11] | Bacterial Biotransformation [12] | Bacterial Biotransformation [13] | Bacterial Biotransformation [14] | Bacterial Biotransformation [15] | Bacterial Biotransformation [16] | Bacterial Biotransformation [17] | Bacterial Biotransformation [18] | Bacterial Biotransformation [19] | Bacterial Biotransformation [20]
1 | CCN(CC)C(=O)C1(c2ccccc2)CC1CN (centres undefined) | Compound NOT metabolized | Compound NOT metabolized | Compound NOT metabolized | Compound NOT metabolized | Compound NOT metabolized | Compound NOT metabolized | Compound NOT metabolized | Compound NOT metabolized | Compound NOT metabolized | Compound NOT metabolized | Compound NOT metabolized | Compound NOT metabolized | Compound NOT metabolized | Compound NOT metabolized | Compound NOT metabolized | Compound NOT metabolized | Compound NOT metabolized | Compound NOT metabolized | Compound NOT metabolized | Compound NOT metabolized
2 | Nc1nc(NC2CC2)c2ncn([C@H]3C=C[C@@H](CO)C3)c2n1.Nc1nc(NC2CC2)c2ncn([C@H]3C=C[C@@H](CO)C3)c2n1.O=S(=O)(O)O [ABACAVIR SULFATE] | Compound NOT metabolized | Compound NOT metabolized | Compound metabolized | Compound metabolized | Compound metabolized | Compound metabolized | Compound NOT metabolized | Compound metabolized | Compound metabolized | Compound metabolized | Compound metabolized | Compound NOT metabolized | Compound NOT metabolized | Compound NOT metabolized | Compound metabolized | Compound NOT metabolized | Compound metabolized | Compound metabolized | Compound NOT metabolized | Compound NOT metabolized
3 | CCN(CC)CCNC(=O)c1ccc(NC(C)=O)cc1 [ACECAINIDE] | Compound NOT metabolized | Compound NOT metabolized | Compound NOT metabolized | Compound NOT metabolized | Compound NOT metabolized | Compound metabolized | Compound NOT metabolized | Compound metabolized | Compound NOT metabolized | Compound NOT metabolized | Compound NOT metabolized | Compound NOT metabolized | Compound NOT metabolized | Compound NOT metabolized | Compound NOT metabolized | Compound NOT metabolized | Compound NOT metabolized | Compound NOT metabolized | Compound NOT metabolized | Compound NOT metabolized
4 | O=C1CN2Cc3c(ccc(Cl)c3Cl)N=C2N1 [ANAGRELIDE] | Compound metabolized | Compound NOT metabolized | Compound metabolized | Compound NOT metabolized | Compound NOT metabolized | Compound metabolized | Compound NOT metabolized | Compound metabolized | Compound metabolized | Compound NOT metabolized | Compound NOT metabolized | Compound NOT metabolized | Compound NOT metabolized | Compound NOT metabolized | Compound NOT metabolized | Compound NOT metabolized | Compound metabolized | Compound NOT metabolized | Compound NOT metabolized | Compound metabolized
5 | CN(C)C(=O)Oc1cc(OC(=O)N(C)C)cc(C(O)CNC(C)(C)C)c1 (centres undefined) [BAMBUTEROL] | Compound metabolized | Compound NOT metabolized | Compound NOT metabolized | Compound NOT metabolized | Compound metabolized | Compound metabolized | Compound NOT metabolized | Compound metabolized | Compound NOT metabolized | Compound NOT metabolized | Compound metabolized | Compound NOT metabolized | Compound NOT metabolized | Compound NOT metabolized | Compound NOT metabolized | Compound NOT metabolized | Compound NOT metabolized | Compound metabolized | Compound metabolized | Compound metabolized
6 | CCc1oc2ccccc2c1C(=O)c1cc(Br)c(O)c(Br)c1 [BENZBROMARONE] | Compound NOT metabolized | Compound metabolized | Compound NOT metabolized | Compound metabolized | Compound NOT metabolized | Compound metabolized | Compound NOT metabolized | Compound metabolized | Compound metabolized | Compound NOT metabolized | Compound NOT metabolized | Compound NOT metabolized | Compound NOT metabolized | Compound metabolized | Compound metabolized | Compound metabolized | Compound NOT metabolized | Compound metabolized | Compound NOT metabolized | Compound metabolized
7 | CC(C)C[C@H]1C(=O)N2CCC[C@H]2[C@]2(O)O[C@](NC(=O)[C@@H]3C=C4c5cccc6[nH]c(Br)c(c56)C[C@H]4N(C)C3)(C(C)C)C(=O)N12.CS(=O)(=O)O [BROMOCRIPTINE MESYLATE] | Compound metabolized | Compound metabolized | Compound metabolized | Compound metabolized | Compound metabolized | Compound metabolized | Compound metabolized | Compound NOT metabolized | Compound metabolized | Compound NOT metabolized | Compound metabolized | Compound metabolized | Compound metabolized | Compound metabolized | Compound metabolized | Compound metabolized | Compound NOT metabolized | Compound metabolized | Compound metabolized | Compound metabolized
8 | CC(=O)OCC(=O)NCCCOc1cccc(CN2CCCCC2)c1 [ROXATIDINE ACETATE] | Compound metabolized | Compound metabolized | Compound metabolized | Compound metabolized | Compound metabolized | Compound metabolized | Compound metabolized | Compound metabolized | Compound metabolized |  | Compound metabolized | Compound NOT metabolized | Compound metabolized | Compound metabolized | Compound metabolized | Compound metabolized | Compound metabolized | Compound metabolized | Compound metabolized | Compound metabolized
